Results taken from US7087420B1, “Microbial β-glucuronidase genes, gene products and uses thereof” (Cambia, priority 1997, dated 2006).
Each block holds one compound with its values, some of them ahead of it.

Key:
[1] = system: Millin rice plants; settings: MUG 1 mM in water
Description: Seeds of T0 plants, which are the primary transformed plants, from pTANG86.1/2/3/4/5/6 (see Table 7 below) transformed plants, seeds of pCAM1301 (E. coli GUS with N358-Q change to remove N-glycosylation signal sequence) transformed plants, or untransformed Millin rice seeds are germinated in water containing 1 mM MUG or 50 μg/mL X-GlcA with or without hygromycin (for nontransformed plants). Resulting plants are observed for any reduced growth due to the presence of MUG, X-GlcA.

[2] = system: rice seeds; assay: Growth of rice plants germinated in water containing glucuronide substrate; format: in vivo; settings: 50 μg/mL X-GlcA in germination water
[3] = system: Staphylococcus β-glucuronidase (GUS^Stp, Staph GUS), wild type, SEQ ID NO: 18 (DNA SEQ ID NO: 1); assay: Inhibition of Staphylococcus GUS by end product glucuronic acid; format: biochemical
Description: GUS^Stp enzyme activity is also resistant to inhibition by detergents. Enzyme activity assays are measured in the presence of varying amounts of SDS, Triton® X-100, or sarcosyl. […] In SDS, the enzyme still had substantial activity (60–75% activity). In addition, GUS^Stp is not inhibited by the end product of the reaction. Activity is determined normally or in the presence of 1 or 10 mM glucuronic acid. No inhibition is seen at either 1 or 10 mM glucuronic acid (FIG. 11). The enzyme is also assayed in the presence of organic solvents, dimethylformamide (DMF) and dimethylsulfoxide (DMSO), and high concentrations of NaCl (FIG. 12).

[4] = molecular target: T1, E. coli β-glucuronidase (E. coli GUS, GUS^Eco), wild type, SEQ ID NO: 23 (Escherichia coli, UniProt P05804); settings: background statement, no concentration; cited from earlier work
T1 construct: pNPG substrate; functional homotetramer
T1 sequence (P05804 whole entry): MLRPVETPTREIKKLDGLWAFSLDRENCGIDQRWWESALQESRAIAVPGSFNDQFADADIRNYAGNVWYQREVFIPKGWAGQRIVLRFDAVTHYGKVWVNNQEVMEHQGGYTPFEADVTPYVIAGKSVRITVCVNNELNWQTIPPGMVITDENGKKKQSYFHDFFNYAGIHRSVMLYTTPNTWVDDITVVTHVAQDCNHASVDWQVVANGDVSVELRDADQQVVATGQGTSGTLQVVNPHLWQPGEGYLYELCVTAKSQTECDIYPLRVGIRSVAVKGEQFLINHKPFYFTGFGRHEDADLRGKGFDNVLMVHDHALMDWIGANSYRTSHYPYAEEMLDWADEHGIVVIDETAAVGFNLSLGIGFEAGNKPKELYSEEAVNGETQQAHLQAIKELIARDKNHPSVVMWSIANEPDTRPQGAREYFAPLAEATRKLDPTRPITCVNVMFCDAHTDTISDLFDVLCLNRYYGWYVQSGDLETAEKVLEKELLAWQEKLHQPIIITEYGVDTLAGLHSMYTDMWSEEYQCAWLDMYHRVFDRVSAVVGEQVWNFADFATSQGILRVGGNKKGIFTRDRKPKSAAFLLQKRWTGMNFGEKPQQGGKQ

[5] = chromophore released from pNPG; cited from earlier work
[6] = system: Staphylococcus β-glucuronidase (GUS^Stp, Staph GUS), wild type, SEQ ID NO: 18 (DNA SEQ ID NO: 1); assay: Kinetics of pNPG hydrolysis by Staphylococcus GUS (spectrophotometric p-nitrophenol release); format: biochemical
Description: The thermal stability of GUS^Stp and E. coli GUS enzymes are determined at 65° C., using a substrate that can be measured by spectrophotometry, for example. One such substrate is p-nitrophenyl β-D-glucuronide (pNPG), which when cleaved by GUS releases the chromophore p-nitrophenol. At a pH greater than its pKa (approximately 7.15), the ionized chromophore absorbs light at 400–420 nm, therefore appears in the yellow range of visible light. Briefly, reactions are performed in 50 mM Na3PO4 pH 7.0, 10 mM 2-ME, 1 mM EDTA, 1 mM pNPG, and 0.1% Triton® X-100 at 37° C. The reactions are terminated by the addition of 0.4 ml of 2-amino-2-methylpropanediol, and absorbance measured at 415 nm against a substrate blank. Under these conditions, the molar extinction coefficient of p-nitrophenol is assumed to be 14,000: One unit is defined as the amount of enzyme that produces 1 nmole of product/min at 37° C.
Turnover number is calculated as nmoles of pNPG converted to p-nitrophenol per min per μg of purified protein.

[7] = system: yeast colonies; assay: Yeast colonies on X-GlcA expression plates containing tunicamycin; format: cell-based; settings: tunicamycin 5, 10, and 20 μg/ml
Description: (§1) To determine whether the N-glycosylation site has a deleterious effect, on secretion, yeast colonies are streaked on expression plates containing X-GlcA and from 0.1 to 20 μg/ml of tunicamycin (to inhibit all N-glycosylation).

[8] = system: yeast strain InvSc1; assay: Growth of transformed yeast colonies on expression plates with tunicamycin; settings: tunicamycin 5, 10, and 20 μg/ml
Description: Yeast strain InvSc1 (mat α his3-Δ1 leu2 trp1-289 ura3-52) from Invitrogen (Carlsbad, Calif.) is transformed with the E. coli GUS and Staphylococcus GUS plasmids indicated in the table below. Transformants are plated on both selection media (minimal media supplemented with His, Leu, Trp, and 2% glucose as a carbon source to suppress the expression of the gene driven by the gal1 promoter) and expression media (media supplemented with His, Leu, Trp, 1% raffinose, 1% galactose as carbon source and with 50 μg/ml X-GlcA).
as §1

Effect on roots of rice plants (reduced growth) [1]: somewhat stunted
Compound: Cc1cc(=O)oc2cc(O[C@@H]3O[C@H](C(=O)O)[C@@H](O)[C@H](O)[C@H]3O)ccc12 [MUG, 4-methylumbelliferyl β-D-glucuronide]

Compound: O=C(O)[C@H]1O[C@@H](Oc2c[nH]c3ccc(Br)c(Cl)c23)[C@H](O)[C@@H](O)[C@@H]1O [X-GlcA, 5-bromo-4-chloro-3-indolyl β-D-glucuronide]
toxic effects / reduced growth of plants [2]: No toxic effects

Compound: O=C(O)[C@H]1OC(O)[C@H](O)[C@@H](O)[C@@H]1O (stereo partly drawn) [glucuronic acid]
Inhibition by glucuronic acid ([3]; 1 mM glucuronic acid (FIG. 11)): No inhibition | Inhibition by glucuronic acid ([3]; 10 mM glucuronic acid (FIG. 11)): No inhibition | Inhibition by glucuronic acid (summary statement) ([3]; unlike E. coli GUS, FIG. 11): not substantially inhibited | Inhibition by end product (glucuronic acid) [4]: inhibited

Compound: O=[N+]([O-])c1ccc(O)cc1 [p-nitrophenol]
pKa [5]: approximately 7.15

Compound: O=C(O)[C@H]1O[C@@H](Oc2ccc([N+](=O)[O-])cc2)[C@H](O)[C@@H](O)[C@@H]1O [pNPG, p-nitrophenyl β-D-glucuronide]
Vmax relative to E. coli GUS ([6]; GUS^Stp vs E. coli GUS, 37° C.): about the same | Turnover number relative to E. coli GUS ([6]; GUS^Stp vs E. coli GUS, 37° C. (FIG. 8)): approximately the same as E. coli GUS | Vmax ([6]; Staph GUS, substrate pNPG, 37° C.): 80 nmol/min/µg

Compound: tunicamycin [listing 1 of 2 here]
growth of yeast colonies [7]: do not grow

Compound: tunicamycin [listing 2 of 2 here]
Yeast colony growth (toxicity) [8]: do not grow
